Data on six compounds can be found in patent US7223837B2, “Elongated and multiple spacers in activatible prodrugs” (Syntarga B.V., priority 2001, dated 2007).

Values after ≈ are worked out from the molar mass of the structure shown.

The subject of one data set is MCF-7. Kind of data set: Anti-proliferative effect, SRB test. The following applies: MCF-7 breast cancer, 5 days of incubation. The format is cell-based, human. The procedure: (§1) The anti-proliferative effect of prodrugs and parent drugs was determined in vitro applying seven well-characterised human tumor cell lines and the microculture sulphorhodamine B (SRB) test. The anti-proliferative effects were determined and expressed as IC50 values, that are the (pro)drug concentrations that gave 50% inhibition when compared to control cell growth after 5 days of incubation.

The subject of the next data set is A498. Kind of data set: Anti-proliferative effect, SRB test. The following applies: A498 renal cancer, 5 days of incubation. The format is cell-based, human. As for the experimental part:
as §1
For orientation: The SRB assay estimates cell density from bound dye.

For another data set, the system named is EVSA-T. Briefly: Anti-proliferative effect, SRB test. The format is cell-based, human. Conditions: EVSA-T breast cancer, 5 days of incubation. The procedure:
as §1

For a further data set, the system named is WIDR. Briefly: Anti-proliferative effect, SRB test. The format is cell-based, human. The following applies: WIDR colon cancer, 5 days of incubation. As for the experimental part:
as §1

In a further data set the test system is M19. Briefly: Anti-proliferative effect, SRB test. The following applies: M19 melanoma, 5 days of incubation. The format is cell-based, human. The procedure:
as §1

For a further data set, the system named is H226. Kind of data set: Anti-proliferative effect, SRB test. The class given is cell-based, human. The following applies: H226 non-small cell lung cancer, 5 days of incubation. The procedure: as §1
The next data set relates to IGROV. Kind of data set: Anti-proliferative effect, SRB test. The class given is cell-based, human. The following applies: IGROV ovarian cancer, 5 days of incubation. The procedure:
as §1

Data set [1] is described as follows: Stability of prodrugs in 0.1 M Tris/HCl buffer (pH 7.3). The following applies: TLC.
The conditions of data set [2]: absence of zinc powder, methanol/acetic acid, same conditions. As for the experimental part: 36 mg of 2′-[nitrocinnamyl carbonate]-paclitaxel 1 was dissolved in 8 ml methanol and 2 ml acetic acid. A catalytic amount of zinc powder was added and the red mixture was stirred for 12 h. Dichloromethane was added and the organic layer was washed with saturated sodium bicarbonate, 0.5 N potassium bisulfate, brine, and water and dried over anhydrous sodium sulfate.

The mark [3] stands for this setting: 150 μM in 0.1 M Tris/HCl buffer (pH 7.3), 3 days.

`COc1cccc2c1C(=O)c1c(O)c3c(c(O)c1C2=O)C[C@@](O)(C(=O)CO)C[C@@H]3O[C@H]1C[C@H](N)[C@H](O)[C@H](C)O1` [Doxorubicin, doxorubicin, reference compound]: the ID50 with MCF-7 turned out to be 10 ng/mL (≈ 0.0184 µM); with A498, 90 ng/mL (≈ 0.166 µM); with EVSA-T, 8 ng/mL (≈ 0.0147 µM); in the data set on WIDR, 11 ng/mL (≈ 0.0202 µM); with M19, 16 ng/mL (≈ 0.0294 µM); with H226 it was 199 ng/mL (≈ 0.366 µM). For the same compound, the ID50 with IGROV worked out at 60 ng/mL (≈ 0.11 µM).
Consider `CC(=O)OC1C(=O)C2(C)C(O)CC3OCC3(OC(C)=O)C2C(OC(=O)c2ccccc2)C2(O)CC(OC(=O)C(OC(=O)OCc3ccc(NC(=O)OCc4ccc(NC(=O)C(CCCCN)NC(=O)C(Cc5ccccc5)NC(=O)C(C)N)cc4)cc3)C(NC(=O)c3ccccc3)c3ccccc3)C(C)=C1C2(C)C.Cl.Cl` [Prodrug 22, 2′-[H-D-Ala-Phe-Lys-PABC-PABC]-paclitaxel (.2HCl)], for which the “formation of degradation products” value in data set [1] (setting [3]) is “no formation of degradation products”. For the same compound, the ID50 in the data set on MCF-7 came to 11 ng/mL; in the data set with A498, 25 ng/mL; in the data set on EVSA-T, 5 ng/mL; with WIDR, 5 ng/mL; in the data set on M19 it was 7 ng/mL; with H226, 7 ng/mL. This compound also returned an ID50 with IGROV of 22 ng/mL.
Turning to `CC(=O)O[C@H]1C(=O)[C@@]2(C)[C@H]([C@H](OC(=O)c3ccccc3)[C@]3(O)C[C@H](OC(=O)[C@H](O)[C@@H](NC(=O)c4ccccc4)c4ccccc4)C(C)=C1C3(C)C)[C@]1(OC(C)=O)CO[C@@H]1C[C@@H]2O` [Paclitaxel, paclitaxel, reference compound], the ID50 in the data set on MCF-7, in the data set on A498, with EVSA-T, in the data set with WIDR, with M19 and in the data set with H226 was less than 3 ng/mL throughout. This compound displayed an ID50 with IGROV of 10 ng/mL (≈ 0.0117 µM).
In the case of `CC(=O)OC1C(=O)C2(C)C(O)CC3OCC3(OC(C)=O)C2C(OC(=O)c2ccccc2)C2(O)CC(OC(=O)C(OC(=O)OCC=Cc3ccc([N+](=O)[O-])cc3)C(NC(=O)c3ccccc3)c3ccccc3)C(C)=C1C2(C)C` (stereo not drawn) [Prodrug 1, 2′-[4-nitrocinnamyl carbonate]-paclitaxel], the “paclitaxel release without reduction” value in data set [2] is given as “no paclitaxel was formed”.
For the compound “H-D-Ala-Phe-Lys-PABC-PABC-DOX.5.7HCl [Prodrug 20]”, the “formation of degradation products” value in [1] (100–270 μM in 0.1 M Tris/HCl buffer (pH 7.3), 90 hours) is given as “no formation of degradation products”. For the same compound, the ID50 in the data set with MCF-7 was found to be 242 ng/mL; in the data set on A498 it was 2303 ng/mL; with EVSA-T, 546 ng/mL; in the data set with WIDR, 627 ng/mL; in the data set with M19, 302 ng/mL; in the data set on H226, 503 ng/mL. Besides, the ID50 in the data set with IGROV was determined as 896 ng/mL.
Turning to “2′-[H-D-Ala-Phe-Lys-PABC-N(Me)—(CH2)2—N(Me)CO]-paclitaxel (.2HCl) [Prodrug 43]”, the “formation of degradation products” value in [1] (setting [3]) is reported as “no formation of degradation products”. The ID50 with MCF-7 was 60 ng/mL; in the data set on A498, 681 ng/mL; in the data set with EVSA-T it was 119 ng/mL; with WIDR, 117 ng/mL; in the data set with M19 it was 96 ng/mL; in the data set with H226, 62 ng/mL. The ID50 in the data set with IGROV was determined as 499 ng/mL.
